Source: publication PMC7550323 (Clinical Pharmacokinetics, 2020)

Columns and labels:
CYP3A4 [1] = biological target: T1, CYP3A4 (Homo sapiens, UniProt P08684); experiment: Effect of gilteritinib on the pharmacokinetics of midazolam; details: for AUC24, GLSM ratio (midazolam + gilteritinib/midazolam alone) / Cmax, GLSM ratio (midazolam + gilteritinib/midazolam alone): 100 indicates no change; for increase in AUC24 on coadministration of gilteritinib with midazolam / increase in Cmax on coadministration of gilteritinib with midazolam: relative to midazolam alone
T1 sequence (P08684 whole entry): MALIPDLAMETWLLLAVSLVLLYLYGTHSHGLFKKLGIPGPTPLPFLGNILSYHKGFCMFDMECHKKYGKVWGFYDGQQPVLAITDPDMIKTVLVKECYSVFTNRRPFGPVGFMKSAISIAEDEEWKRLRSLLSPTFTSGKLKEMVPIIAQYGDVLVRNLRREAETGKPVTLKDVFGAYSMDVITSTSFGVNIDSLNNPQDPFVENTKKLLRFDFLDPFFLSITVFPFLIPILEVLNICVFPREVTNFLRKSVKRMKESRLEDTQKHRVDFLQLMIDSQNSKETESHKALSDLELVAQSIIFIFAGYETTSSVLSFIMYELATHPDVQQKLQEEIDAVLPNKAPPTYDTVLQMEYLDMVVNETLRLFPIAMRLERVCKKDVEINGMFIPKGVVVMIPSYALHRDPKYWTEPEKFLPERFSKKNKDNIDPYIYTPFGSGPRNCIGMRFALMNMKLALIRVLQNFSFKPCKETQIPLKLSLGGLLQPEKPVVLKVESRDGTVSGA

CYP3A4 [2] = biological target: T1, CYP3A4; experiment: clinical; details: plasma, po, 2 mg
[3] = human, in vivo; cited from earlier work

SMILES	AUC24, GLSM ratio (midazolam + gilteritinib/midazolam alone) (CYP3A4 [1]; N = 8)	Cmax, GLSM ratio (midazolam + gilteritinib/midazolam alone) (CYP3A4 [1]; N = 9)	AUC24, MDZ + gilteritinib (GLSM) (CYP3A4 [1]; midazolam 2 mg oral on Cycle 1 Day 15 with gilteritinib 300 mg QD, N = 8)	Cmax, MDZ + gilteritinib (GLSM) (CYP3A4 [1]; midazolam 2 mg oral on Cycle 1 Day 15 with gilteritinib 300 mg QD, N = 9)	AUC24, MDZ alone (GLSM) (CYP3A4 [1]; midazolam 2 mg oral on Day-1, N = 8)	Cmax, MDZ alone (GLSM) (CYP3A4 [1]; midazolam 2 mg oral on Day-1, N = 9)	increase in AUC24 on coadministration of gilteritinib with midazolam (CYP3A4 [1])	increase in Cmax on coadministration of gilteritinib with midazolam (CYP3A4 [1])	AUC (CYP3A4 [2])	Cmax (CYP3A4 [2])	half-life [3]	increase in exposure when coadministered with itraconazole [3]	increase in exposure when coadministered with ketoconazole [3]	increase in exposure with a high-fat meal [3]
OCc1ncc2n1-c1ccc(Cl)cc1C(c1ccccc1F)=NC2 [1-hydroxymidazolam]	149.9%	123.5%	17.0 ng·h/mL	4.3 ng/mL	11.3 ng·h/mL	3.5 ng/mL	~50%	approximately 23%	–	–	–	–	–	–
Cc1ncc2n1-c1ccc(Cl)cc1C(c1ccccc1F)=NC2 [midazolam, reference compound]	109.5%	111.6%	–	–	–	–	10%	10%	54.3 ng·h/mL	14.3 ng/mL	–	–	–	–
CO[C@@H]1[C@H](N(C)C(=O)c2ccccc2)C[C@H]2O[C@]1(C)n1c3ccccc3c3c4c(c5c6ccccc6n2c5c31)C(=O)NC4 [midostaurin]	–	–	–	–	–	–	–	–	–	–	21 h	2.1 fold	10.4 fold	1.6 fold
